Measured values taken from patent US20210261512A1, “NOVEL COMPOUNDS” (INFLAZOME LIMITED, priority 2018, published 2021).

Target: NLRP3 (Homo sapiens, UniProt Q96P20)
Test: THP-1 cells pyroptosis assay
Type: cell-based
Set-up: Seed THP-1 cells (25,000 cells/well) containing 1.0 μg/ml LPS; host or cells: THP-1
Settings: LPS 1.0 μg/ml, nigericin 5 μM, resazurin readout, 10 μM top dose (Example 2: top dose of 30 μM)
Method in brief: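 Pyroptosis induced by 5 μM nigericin (1 h) in LPS-primed (1 μg/ml) THP-1 cells, 25,000/well in serum-free RPMI, after 3 h compound pre-treatment (8 points, 10 μM top unless stated). Surviving cells measured with 100 μM resazurin, Ex 560/Em 590; IC50 via variable-slope 4-parameter regression.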

Chain of NLRP3 (Q96P20 whole entry): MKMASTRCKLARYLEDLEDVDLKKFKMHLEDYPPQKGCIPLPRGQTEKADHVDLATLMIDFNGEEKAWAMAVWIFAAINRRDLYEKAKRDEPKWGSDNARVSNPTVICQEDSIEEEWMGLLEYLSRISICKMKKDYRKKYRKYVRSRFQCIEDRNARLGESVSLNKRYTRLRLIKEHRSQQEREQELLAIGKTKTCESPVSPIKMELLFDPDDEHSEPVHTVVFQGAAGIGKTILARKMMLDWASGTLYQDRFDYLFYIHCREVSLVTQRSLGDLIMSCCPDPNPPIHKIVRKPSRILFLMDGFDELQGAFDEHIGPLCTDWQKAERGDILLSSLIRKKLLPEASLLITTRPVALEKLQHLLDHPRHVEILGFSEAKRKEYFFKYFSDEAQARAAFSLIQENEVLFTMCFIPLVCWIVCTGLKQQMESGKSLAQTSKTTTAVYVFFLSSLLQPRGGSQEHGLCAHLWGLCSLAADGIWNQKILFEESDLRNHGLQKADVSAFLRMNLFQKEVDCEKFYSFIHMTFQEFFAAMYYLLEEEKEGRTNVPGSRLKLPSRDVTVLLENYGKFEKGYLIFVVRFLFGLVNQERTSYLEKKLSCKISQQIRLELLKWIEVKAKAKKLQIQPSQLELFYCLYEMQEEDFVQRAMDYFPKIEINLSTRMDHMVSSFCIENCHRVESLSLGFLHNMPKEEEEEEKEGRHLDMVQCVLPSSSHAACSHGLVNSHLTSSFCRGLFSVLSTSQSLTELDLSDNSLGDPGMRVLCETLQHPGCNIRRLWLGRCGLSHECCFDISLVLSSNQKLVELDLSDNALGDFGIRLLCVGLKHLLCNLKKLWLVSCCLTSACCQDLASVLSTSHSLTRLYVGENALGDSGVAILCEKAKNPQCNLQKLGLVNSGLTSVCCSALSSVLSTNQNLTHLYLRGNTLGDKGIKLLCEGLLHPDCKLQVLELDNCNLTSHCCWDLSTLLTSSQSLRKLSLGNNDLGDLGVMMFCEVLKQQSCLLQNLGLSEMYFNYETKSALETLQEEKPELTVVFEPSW

Compound | IC50 [µM]
O=c1cccc(CNS(=O)(=O)c2nnc(Nc3c4c(cc5c3CCC5)CCC4)[nH]2)[nH]1 [Example 103, 5-((1,2,3,5,6,7-hexahydro-s-indacen-4-yl)amino)-N-((6-oxo-1,6-dihydropyridin-2-yl)methyl)-4H-1,2,4-triazole-3-sulfonamide] | ≤ 5
O=S(=O)(NCc1ccncc1)c1nnc(Nc2c3c(cc4c2CCC4)CCC3)[nH]1 [Example 96, 5-((1,2,3,5,6,7-hexahydro-s-indacen-4-yl)amino)-N-(pyridin-4-ylmethyl)-4H-1,2,4-triazole-3-sulfonamide] | ≤ 5
O=S(=O)(CCCO)c1nnc(Nc2c3c(cc4c2CCC4)CCC3)[nH]1 [Example 47, 3-((5-((1,2,3,5,6,7-hexahydro-s-indacen-4-yl)amino)-4H-1,2,4-triazol-3-yl)sulfonyl)propan-1-ol] | ≤ 5
O=S(=O)(CCCNC1CC1)c1nnc(Nc2c3c(cc4c2CCC4)CCC3)[nH]1 [Example 56, 5-((3-(cyclopropylamino)propyl)sulfonyl)-N-(1,2,3,5,6,7-hexahydro-s-indacen-4-yl)-4H-1,2,4-triazol-3-amine] | ≤ 5
COCCCS(=O)(=O)c1nnc(Nc2c3c(cc4c2CCC4)CCC3)[nH]1 [Example 65, N-(1,2,3,5,6,7-hexahydro-s-indacen-4-yl)-3-((3-methoxypropyl)sulfonyl)-1H-1,2,4-triazol-5-amine] | ≤ 10
CC(=O)NCCN(C)S(=O)(=O)c1nnc(Nc2c3c(cc4c2CCC4)CCC3)[nH]1 [Example 107, N-(2-(5-((1,2,3,5,6,7-hexahydro-s-indacen-4-yl)amino)-N-methyl-4H-1,2,4-triazole-3-sulfonamido)ethyl)acetamide] | ≤ 10
(E)-1-(8-((5-((4-(dimethylamino)piperidin-1-yl)sulfonyl)-4H-1,2,4-triazol-3-yl)amino)-1,2,3,5,6,7-hexahydro-s-indacen-4-yl)ethan-1-one oxime and (Z)-1-(8-((5-((4-(dimethylamino)piperidin-1-yl)sulfonyl)-4H-1,2,4-triazol-3-yl)amino)-1,2,3,5,6,7-hexahydro-s-indacen-4-yl)ethan-1-one oxime [Example 309] | ≤ 5
CS(=O)(=O)c1nnc(Nc2c(-c3ccnc(Oc4ccccc4)c3)ccc3c2CCC3)[nH]1 [Example 340, 5-(methylsulfonyl)-N-(5-(2-phenoxypyridin-4-yl)-2,3-dihydro-1H-inden-4-yl)-4H-1,2,4-triazol-3-amine] | ≤ 5
O=S(=O)(NCc1cccnc1)c1nnc(Nc2c3c(cc4c2CCC4)CCC3)[nH]1 [Example 97, 5-((1,2,3,5,6,7-hexahydro-s-indacen-4-yl)amino)-N-(pyridin-3-ylmethyl)-4H-1,2,4-triazole-3-sulfonamide] | ≤ 5
COc1cc(-c2cc(F)cc(C(C)C)c2Cc2nnc(S(=O)(=O)c3ccccc3)[nH]2)ccn1 [Example 155, 4-(5-fluoro-3-isopropyl-2-((5-(phenylsulfonyl)-4H-1,2,4-triazol-3-yl)-methyl)phenyl)-2-methoxypyridine] | ≤ 10
CNS(=O)(=O)c1nnc(Nc2c3c(cc4c2CCC4)CCC3)[nH]1 [Example 371, 5-((1,2,3,5,6,7-hexahydro-s-indacen-4-yl)amino)-N-methyl-4H-1,2,4-triazole-3-sulfonamide] | ≤ 5
O=S(=O)(CC1CNCCO1)c1nnc(Nc2c3c(cc4c2CCC4)CCC3)[nH]1 (centres unmarked) [Example 57, N-(1,2,3,5,6,7-hexahydro-s-indacen-4-yl)-3-((morpholin-2-ylmethyl)sulfonyl)-1H-1,2,4-triazol-5-amine] | ≤ 10
COC1(c2cc([S+]([O-])c3nnc(Nc4c5c(cc6c4CCC6)CCC5)[nH]3)nn2C)COC1 (centres unmarked) [Example 26, N-(1,2,3,5,6,7-hexahydro-s-indacen-4-yl)-5-((5-(3-methoxyoxetan-3-yl)-1-methyl-1H-pyrazol-3-yl)sulfinyl)-4H-1,2,4-triazol-3-amine] | ≤ 10
O=C1CCCN1CCNS(=O)(=O)c1nnc(Nc2c3c(cc4c2CCC4)CCC3)[nH]1 [Example 114, 5-((1,2,3,5,6,7-hexahydro-s-indacen-4-yl)amino)-N-(2-(2-oxopyrrolidin-1-yl)ethyl)-4H-1,2,4-triazole-3-sulfonamide] | ≤ 5
COC1(c2cc(S(=O)(=O)c3nnc(Nc4c5c(cc6c4CCC6)CCC5)[nH]3)nn2C(C)C)COC1 [Example 14, N-(1,2,3,5,6,7-hexahydro-s-indacen-4-yl)-5-((1-isopropyl-5-(3-methoxyoxetan-3-yl)-1H-pyrazol-3-yl)sulfonyl)-4H-1,2,4-triazol-3-amine] | ≤ 5
CC(C)(O)CCNS(=O)(=O)c1nnc(Nc2c3c(cc4c2CCC4)CCC3)[nH]1 [Example 116, 5-((1,2,3,5,6,7-hexahydro-s-indacen-4-yl)amino)-N-(3-hydroxy-3-methylbutyl)-4H-1,2,4-triazole-3-sulfonamide] | ≤ 5

Compound | IC50 [µM]
CN1CCN(S(=O)(=O)c2nnc(Nc3c4c(cc5c3CCC5)CCC4)[nH]2)CC1=O [Example 113, 4-((5-((1,2,3,5,6,7-hexahydro-s-indacen-4-yl)amino)-4H-1,2,4-triazol-3-yl)sulfonyl)-1-methylpiperazin-2-one] | ≤ 5
COc1cc(-c2ccc3c(c2Nc2nnc(S(=O)(=O)c4ccc(C(C)(C)O)cc4)[nH]2)CCC3)ccn1 [Example 324, 2-(4-((5-((5-(2-methoxypyridin-4-yl)-2,3-dihydro-1H-inden-4-yl)amino)-4H-1,2,4-triazol-3-yl)sulfonyl)phenyl)propan-2-ol] | ≤ 0.5
CC(C)c1cc(F)cc(-c2cccnc2)c1Nc1nnc(S(=O)(=O)c2ccn(C(C)C)n2)[nH]1 [Example 39, N-(4-fluoro-2-isopropyl-6-(pyridin-3-yl)phenyl)-5-((1-isopropyl-1H-pyrazol-3-yl)sulfonyl)-4H-1,2,4-triazol-3-amine] | ≤ 10
CC(C)(O)C1CCCN(S(=O)(=O)c2nnc(Nc3c4c(cc5c3CCC5)CCC4)[nH]2)C1 (centres unmarked) [Example 315, 2-(1-((5-((1,2,3,5,6,7-hexahydro-s-indacen-4-yl)amino)-4H-1,2,4-triazol-3-yl)sulfonyl)piperidin-3-yl)propan-2-ol] | ≤ 5
CC(C)(O)c1cccc(S(=O)(=O)c2nnc(Nc3c4c(cc5c3CCC5)CCC4)[nH]2)c1 [Example 172, 2-(3-((5-((1,2,3,5,6,7-hexahydro-s-indacen-4-yl)amino)-4H-1,2,4-triazol-3-yl)sulfonyl)phenyl)propan-2-ol] | ≤ 1
CN1CCN(C2CCN(S(=O)(=O)c3nnc(Nc4c5c(cc6c4CCC6)CCC5)[nH]3)CC2)CC1 [Example 135, N-(1,2,3,5,6,7-hexahydro-s-indacen-4-yl)-5-((4-(4-methylpiperazin-1-yl)piperidin-1-yl)sulfonyl)-4H-1,2,4-triazol-3-amine] | ≤ 5
O=S(=O)(c1nnc(Nc2c3c(cc4c2CCC4)CCC3)[nH]1)N1CC[C@H](CO)C1 [Example 284, (S)-(1-((5-((1,2,3,5,6,7-hexahydro-s-indacen-4-yl)amino)-4H-1,2,4-triazol-3-yl)sulfonyl)pyrrolidin-3-yl)methanol] | ≤ 10
CS(=O)(=O)c1nnc(Nc2c(-c3ccnc(OC4CCNCC4)c3)ccc3c2CCC3)[nH]1 [Example 357, 5-(methylsulfonyl)-N-(5-(2-(piperidin-4-yloxy)pyridin-4-yl)-2,3-dihydro-1H-inden-4-yl)-4H-1,2,4-triazol-3-amine] | ≤ 10
O=S(=O)(c1nnc(Nc2c3c(cc4c2CCC4)CCC3)[nH]1)N1CCC2(CCN(C3CC3)C2)CC1 [Example 244, 5-((2-cyclopropyl-2,8-diazaspiro[4.5]decan-8-yl)sulfonyl)-N-(1,2,3,5,6,7-hexahydro-s-indacen-4-yl)-4H-1,2,4-triazol-3-amine] | ≤ 5
O=S(=O)(c1nnc(Nc2c3c(cc4c2CCC4)CCC3)[nH]1)N1CCC2(CCCN2CCF)CC1 [Example 255, 5-((1-(2-fluoroethyl)-1,8-diazaspiro[4.5]decan-8-yl)sulfonyl)-N-(1,2,3,5,6,7-hexahydro-s-indacen-4-yl)-4H-1,2,4-triazol-3-amine] | ≤ 1
O=S(=O)(c1nnc(Nc2c3c(cc4c2CCC4)CCC3)[nH]1)N1CCC(F)(F)CC1 [Example 297, 5-((4,4-difluoropiperidin-1-yl)sulfonyl)-N-(1,2,3,5,6,7-hexahydro-s-indacen-4-yl)-4H-1,2,4-triazol-3-amine] | ≤ 10
CN1CCCN(S(=O)(=O)c2nnc(Nc3c4c(cc5c3CCC5)CCC4)[nH]2)CC1 [Example 273, N-(1,2,3,5,6,7-hexahydro-s-indacen-4-yl)-5-((4-methyl-1,4-diazepan-1-yl)sulfonyl)-4H-1,2,4-triazol-3-amine] | ≤ 10
O=S(=O)(c1ccccc1)c1nc(Nc2c(-c3cccnc3)cc(F)c3c2CCC3)n[nH]1 [Example 41, N-(7-fluoro-5-(pyridin-3-yl)-2,3-dihydro-1H-inden-4-yl)-5-(phenylsulfonyl)-1H-1,2,4-triazol-3-amine] | ≤ 10
CN1CCC(CN(C)S(=O)(=O)c2nnc(Nc3c4c(cc5c3CCC5)CCC4)[nH]2)C1 (centres unmarked) [Example 92, 5-((1,2,3,5,6,7-hexahydro-s-indacen-4-yl)amino)-N-methyl-N-((1-methylpyrrolidin-3-yl)methyl)-4H-1,2,4-triazole-3-sulfonamide] | ≤ 10
COC(=O)CN(CCN)S(=O)(=O)c1nnc(Nc2c3c(cc4c2CCC4)CCC3)[nH]1 [Example 111, methyl 2-(N-(2-aminoethyl)-5-((1,2,3,5,6,7-hexahydro-s-indacen-4-yl)amino)-4H-1,2,4-triazole-3-sulfonamido)acetate] | ≤ 10
CN1CCC(COc2cc(-c3ccc4c(c3Nc3nnc(S(C)(=O)=O)[nH]3)CCC4)ccn2)C1 (centres unmarked) [Example 358, N-(5-(2-((1-methylpyrrolidin-3-yl)methoxy)pyridin-4-yl)-2,3-dihydro-1H-inden-4-yl)-5-(methylsulfonyl)-4H-1,2,4-triazol-3-amine] | ≤ 10
